{"source": "paper PMC9374667", "about": "(Communications Biology, 2022)", "key": {"IKKε [1]": {"biological_target": "T1, IKKε (Mus musculus, UniProt Q9R0T8)", "T1 sequence (Q9R0T8 1-717)": "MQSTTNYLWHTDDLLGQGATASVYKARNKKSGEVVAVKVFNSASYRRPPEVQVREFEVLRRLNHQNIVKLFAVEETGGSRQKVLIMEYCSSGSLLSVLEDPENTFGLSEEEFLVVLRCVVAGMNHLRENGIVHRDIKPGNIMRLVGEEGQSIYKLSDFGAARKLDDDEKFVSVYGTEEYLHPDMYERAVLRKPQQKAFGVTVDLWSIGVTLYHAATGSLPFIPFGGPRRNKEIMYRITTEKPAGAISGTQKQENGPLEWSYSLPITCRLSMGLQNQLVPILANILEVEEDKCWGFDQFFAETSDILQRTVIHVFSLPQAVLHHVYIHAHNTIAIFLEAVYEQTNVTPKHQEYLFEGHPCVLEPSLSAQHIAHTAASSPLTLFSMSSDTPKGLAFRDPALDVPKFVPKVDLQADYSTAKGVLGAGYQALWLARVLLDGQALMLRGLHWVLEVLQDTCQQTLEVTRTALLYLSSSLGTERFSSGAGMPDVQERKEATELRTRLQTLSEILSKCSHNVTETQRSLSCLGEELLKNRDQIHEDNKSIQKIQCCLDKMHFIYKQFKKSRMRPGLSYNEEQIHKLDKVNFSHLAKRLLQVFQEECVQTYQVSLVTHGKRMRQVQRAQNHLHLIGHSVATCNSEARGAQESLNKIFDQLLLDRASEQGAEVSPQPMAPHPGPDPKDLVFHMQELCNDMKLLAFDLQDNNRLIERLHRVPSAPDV", "test": "IKKε-knockdown 3T3-L1 adipocytes (siRNA; western blotting, cAMP, glycerol, ISO)", "type": "cell-based, Murine", "set-up": "endogenous in cells; host or cells: differentiated 3T3-L1 adipocytes", "settings": "for Glycerol (Figure 9l) / UCP1 (western blotting, Figure 9J) / cAMP (Figure 9k): 10μM BJ +", "method": "Small interference RNA transfection (siRNA) was performed using 4 μM TBK1 siRNA (siTBK1) or 4 μM […]ε) or corresponding NC siRNA (siNC). The epididymal adipose tissue was dissected, the fresh adipose tissue was weighed and rapidly rinsed with PBS. The adipose tissue was cut and incubated with isoproterenol (10 μM) for 2 h, and homogenized in a cold cleavage buffer to prepare the adipose tissue homogenate. Then the homogenate was centrifuged at 12,000 × g at 4 °C for 15 min, and the supernatant was collected. […] Then the cells were lysed in a petri dish, scraped off, and centrifuged at 12,000 × g at 4 °C for 15 min before the supernatant was collected. […] And concentrations were further standardized according to protein concentration. The adipose tissue or 3T3-L1 adipocytes were homogenized by ultrasound in an ice-cold RIPA lysis buffer containing 1% PMSF and centrifuged at 12,000 × g at 4°C for 15 min to collect the supernatant. The BCA protein assay kit (Beyotime, Shanghai, China) was used to detect the total protein concentration. Proteins (20-30 μg) of the sample were separated by 10% SDS-PAGE gel and transferred onto polyvinylidene difluoride (PVDF) membranes. Then the PVDF membranes were blocked in 5% skim milk powder in TBS containing 1% Tween-20 (TBST) for 2 h at room temperature and washed with TBST for 3 times. […] After washing, the membranes were incubated with horseradish peroxidase-conjugated secondary antibodies (in 5% skim milk powder) for 1 h at room temperature. Finally, the membranes were treated with enhanced chemiluminescence agents (Tanon, Shanghai, China) and the signals were monitored using the Tanon 5200 multi chemiluminescent imaging system (Tanon, Shanghai, China)."}, "IKKε [2]": {"biological_target": "T1, IKKε", "test": "IKKε activity assay in BAT", "type": "in vivo, mice", "set-up": "The adipose tissue was ultrasound-crushed in PBS buffer solution (1:9 w/v) to prepare the tissue homogenate; from tissue; host or cells: epididymal white adipose tissue (eWAT) and brown adipose tissue (BAT) of C57BLKS WT and db/db mice", "settings": "for the expression of IKKε in BAT of db/db mice: Figure 6l, individual values", "method": "The adipose tissue was ultrasound-crushed in PBS buffer solution (1:9 w/v) to prepare the tissue homogenate. The tissue homogenate was centrifuged at 5000 × g for 10 min, and the supernatant was taken for detection. Briefly, samples or standards were added to the microplates pre-coated with IKKε antibody or TBK1 antibody. Then horseradish peroxidase (HRP) labeled antibody was added and incubated at 37 °C for 60 min. After thorough washing, the 3,3′,5,5′-tetramethylbenzidine (TMB) substrate was used for color development, and the absorbance (OD value) was determined at 450 nm."}}, "note": "Where “and” joins values, the source holds several entries; their conditions need not be identical. Equal entries are not always repeated."}
{"smiles": "CC(C)Cc1ccc(C(C)C(=O)[O-])cc1.COc1ccc2cc3[n+](cc2c1OC)CCc1cc2c(cc1-3)OCO2.O.O.O.O", "note": "[BJ, berberine-ibuprofen]", "values": [{"measurement": "IKKϵ (western blotting, Figure 9h)", "setting": "IKKε [1]; 10μM BJ", "value": "0.1875 and 0.2278 and 0.214"}, {"measurement": "UCP1 (western blotting, Figure 9i)", "setting": "IKKε [1]; 10μM BJ", "value": "0.3644 and 0.4778 and 0.4436"}, {"measurement": "Expression of UCP1", "setting": "IKKε [1]; 3T3-L1 adipocytes treated with BJ alone", "value": "significantly increased"}, {"measurement": "UCP1 expression", "setting": "IKKε [1]; IKKε-knockdown 3T3-L1 adipocytes treated with BJ, vs IKKε-knockdown", "value": "not significantly altered"}, {"measurement": "cAMP accumulation, glycerol release, and UCP1 expression", "setting": "IKKε [1]; IKKε-knockdown 3T3-L1 adipocytes, ISO stimulation, BJ vs IKKε-knockdown", "value": "did not significantly increase the above changes"}, {"measurement": "cAMP accumulation, glycerol release, and UCP1 expression", "setting": "IKKε [1]; ISO-stimulated 3T3-L1 adipocytes, BJ treatment alone", "value": "significantly increased cAMP accumulation, glycerol release, and UCP1 expression"}, {"measurement": "Glycerol (Figure 9l)", "setting": "IKKε [1]; siIKKϵ +, ISO +", "value": "176.805 µmol/L and 182.076 µmol/L and 176.254 µmol/L"}, {"measurement": "UCP1 (western blotting, Figure 9J)", "setting": "IKKε [1]; siIKKϵ +, ISO +", "value": "0.785 and 0.7814 and 0.8472"}, {"measurement": "cAMP (Figure 9k)", "setting": "IKKε [1]; siIKKϵ +, ISO +", "value": "0.4194 pmol/mg protein and 0.4185 pmol/mg protein and 0.3432 pmol/mg protein and 0.371 pmol/mg protein and 0.3866 pmol/mg protein and 0.405 pmol/mg protein"}, {"measurement": "Glycerol (Figure 9l)", "setting": "IKKε [1]; siIKKϵ +, ISO -", "value": "89.0822 µmol/L and 96.3611 µmol/L and 91.9299 µmol/L"}, {"measurement": "UCP1 (western blotting, Figure 9J)", "setting": "IKKε [1]; siIKKϵ +, ISO -", "value": "0.6376 and 0.6905 and 0.6507"}, {"measurement": "cAMP (Figure 9k)", "setting": "IKKε [1]; siIKKϵ +, ISO -", "value": "0.2155 pmol/mg protein and 0.2223 pmol/mg protein and 0.1908 pmol/mg protein and 0.2097 pmol/mg protein and 0.2158 pmol/mg protein and 0.2252 pmol/mg protein"}, {"measurement": "Glycerol (Figure 9l)", "setting": "IKKε [1]; siIKKϵ -, ISO +", "value": "156.977 µmol/L and 167.166 µmol/L and 170.891 µmol/L"}, {"measurement": "UCP1 (western blotting, Figure 9J)", "setting": "IKKε [1]; siIKKϵ -, ISO +", "value": "0.6574 and 0.7704 and 0.6754"}, {"measurement": "cAMP (Figure 9k)", "setting": "IKKε [1]; siIKKϵ -, ISO +", "value": "0.362 pmol/mg protein and 0.3606 pmol/mg protein and 0.3205 pmol/mg protein and 0.3322 pmol/mg protein and 0.3416 pmol/mg protein and 0.3545 pmol/mg protein"}, {"measurement": "Glycerol (Figure 9l)", "setting": "IKKε [1]; siIKKϵ -, ISO -", "value": "81.5401 µmol/L and 78.1125 µmol/L and 83.122 µmol/L"}, {"measurement": "UCP1 (western blotting, Figure 9J)", "setting": "IKKε [1]; siIKKϵ -, ISO -", "value": "0.5736 and 0.639 and 0.5661"}, {"measurement": "cAMP (Figure 9k)", "setting": "IKKε [1]; siIKKϵ -, ISO -", "value": "0.1756 pmol/mg protein and 0.1959 pmol/mg protein and 0.2053 pmol/mg protein and 0.1755 pmol/mg protein and 0.1805 pmol/mg protein and 0.1893 pmol/mg protein"}, {"measurement": "IKKϵ (western blotting, Figure 9h)", "setting": "IKKε [1]; siIKKϵ+10μM BJ", "value": "0.09311 and 0.1256 and 0.1406"}, {"measurement": "UCP1 (western blotting, Figure 9i)", "setting": "IKKε [1]; siIKKϵ+10μM BJ", "value": "0.4915 and 0.4988 and 0.5593"}, {"measurement": "the expression of IKKε in BAT of db/db mice", "setting": "IKKε [2]; db/db+BJ 75mg/kg", "value": "0.441 U/g and 0.458 U/g and 0.427 U/g and 0.409 U/g and 0.371 U/g and 0.436 U/g"}, {"measurement": "the expression of IKKε in BAT of db/db mice", "setting": "IKKε [2]; db/db+BJ 150mg/kg", "value": "0.429 U/g and 0.4 U/g and 0.314 U/g and 0.335 U/g and 0.348 U/g and 0.398 U/g"}, {"measurement": "IKKε activity and expression levels in BAT", "setting": "IKKε [2]; db/db mice, both doses of BJ", "value": "had no effect"}]}
